Measured values: US20180228775A1, “METHODS OF TREATING CANCER” (Dana-Farber Cancer Institute, Inc., priority 2014, published 2018)

Columns and labels:
[1] = test system: human PBMC; assay: Culture of human PBMC with GM-CSF (K562-GM) and PPAR-γ modulators: Treg numbers; assay type: cell-based
[2] = test system: GM-CSF treated human monocytes; assay: CCL17 and CCL22 expression by GM-CSF treated human monocytes (ELISA); assay type: cell-based; conditions: human monocytes with GM-CSF
Method: CCL17 levels were normalized to the number of monocytes per well.
FIG. 43: Role of PPAR-g in restraining Treg recruitment and expansion is conserved in GM-CSF treated human monocytes.
CCL17 levels were measured using ELISA (DY364, R&D Systems).
In addition, these cultures were treated with DMSO or Rosi.

CN(CCOc1ccc(CC2SC(=O)NC2=O)cc1)c1ccccn1 (stereo not shown) [Rosi, rosiglitazone]
Treg number ([1]; non-GM-CSF treated cultures (K562-WT)): no effect

O=C(Nc1ccncc1)c1cc([N+](=O)[O-])ccc1Cl [T0070907]
Treg number / GM-CSF induced Treg expansion ([1]; human PBMC with GM-CSF (K562-GM), 10 uM Rosi or T0070907 luM every 48 hours, day 4-6): increase
CCL22 expression [2]: increasing
CCL17 expression ([2]; 10 uM Rosi, 5 days, ELISA): increasing
